# Legend:
# Adrenergic α1A = biological target: T1, Adrenergic α1A (Rattus norvegicus, UniProt P43140); test: Receptor binding 203100
# T1 construct: Eurofins 203100; host or cells: crude membrane preparation
# Description: (§1) Radioligand binding to a panel of receptors was carried out by Eurofins on crude membrane preparations according to published procedures and by using appropriate reference standard (Eurofins, CVie 101 compound code PT #1207859, study #AB76416, quote #68407-1, for Cvie Therapeutics Limited, Taiwan (R.OC.) on Mar. 5, 2017). CVie 101 was tested at the concentration of 10 μM. No significant interaction was documented, except for Sodium Channel, site 2 from rat (cat #279510), where a significant response (≥50%) was noted (Table 7).
# Monoamine Oxidase MAO-B = biological target: T2, Monoamine Oxidase MAO-B (Homo sapiens, UniProt P27338); test: Eurofins panel 140120; format: biochemical
# T2 construct: Eurofins 140120
# T2 sequence (P27338 whole entry): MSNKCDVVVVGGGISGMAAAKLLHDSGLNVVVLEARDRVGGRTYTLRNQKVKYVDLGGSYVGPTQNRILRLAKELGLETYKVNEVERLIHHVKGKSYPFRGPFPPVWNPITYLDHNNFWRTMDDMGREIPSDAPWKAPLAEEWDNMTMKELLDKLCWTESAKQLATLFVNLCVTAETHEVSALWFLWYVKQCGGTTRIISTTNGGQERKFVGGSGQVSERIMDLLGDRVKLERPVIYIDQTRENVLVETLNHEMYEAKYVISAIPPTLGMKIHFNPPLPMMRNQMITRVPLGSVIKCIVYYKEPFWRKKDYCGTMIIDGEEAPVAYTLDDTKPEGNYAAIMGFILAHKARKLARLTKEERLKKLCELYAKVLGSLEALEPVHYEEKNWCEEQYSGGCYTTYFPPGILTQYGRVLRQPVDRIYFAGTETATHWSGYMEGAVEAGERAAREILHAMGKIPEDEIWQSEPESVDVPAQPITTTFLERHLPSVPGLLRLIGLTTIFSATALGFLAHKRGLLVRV
# Description: as §1
# Angiotensin AT1 = biological target: T3, Angiotensin AT1 (Homo sapiens, UniProt P30556); test: Receptor binding 210030
# T3 construct: Eurofins 210030; host or cells: crude membrane preparation
# T3 sequence (P30556 whole entry): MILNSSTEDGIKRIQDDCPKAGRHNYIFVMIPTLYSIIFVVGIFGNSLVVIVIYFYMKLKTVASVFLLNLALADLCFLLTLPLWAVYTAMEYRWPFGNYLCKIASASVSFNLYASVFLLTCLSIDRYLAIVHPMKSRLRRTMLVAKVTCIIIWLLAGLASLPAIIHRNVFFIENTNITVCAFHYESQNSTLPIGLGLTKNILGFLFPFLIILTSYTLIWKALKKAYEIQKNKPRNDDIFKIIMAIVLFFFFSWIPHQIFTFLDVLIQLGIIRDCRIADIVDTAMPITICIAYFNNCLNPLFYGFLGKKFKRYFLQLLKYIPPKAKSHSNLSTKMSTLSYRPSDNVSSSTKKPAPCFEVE
# Description: as §1
# Estrogen ERα = biological target: T4, Estrogen ERα (Homo sapiens, UniProt P03372); test: Receptor binding 226010
# T4 construct: Eurofins (contract assay) 226010
# T4 sequence (P03372 whole entry): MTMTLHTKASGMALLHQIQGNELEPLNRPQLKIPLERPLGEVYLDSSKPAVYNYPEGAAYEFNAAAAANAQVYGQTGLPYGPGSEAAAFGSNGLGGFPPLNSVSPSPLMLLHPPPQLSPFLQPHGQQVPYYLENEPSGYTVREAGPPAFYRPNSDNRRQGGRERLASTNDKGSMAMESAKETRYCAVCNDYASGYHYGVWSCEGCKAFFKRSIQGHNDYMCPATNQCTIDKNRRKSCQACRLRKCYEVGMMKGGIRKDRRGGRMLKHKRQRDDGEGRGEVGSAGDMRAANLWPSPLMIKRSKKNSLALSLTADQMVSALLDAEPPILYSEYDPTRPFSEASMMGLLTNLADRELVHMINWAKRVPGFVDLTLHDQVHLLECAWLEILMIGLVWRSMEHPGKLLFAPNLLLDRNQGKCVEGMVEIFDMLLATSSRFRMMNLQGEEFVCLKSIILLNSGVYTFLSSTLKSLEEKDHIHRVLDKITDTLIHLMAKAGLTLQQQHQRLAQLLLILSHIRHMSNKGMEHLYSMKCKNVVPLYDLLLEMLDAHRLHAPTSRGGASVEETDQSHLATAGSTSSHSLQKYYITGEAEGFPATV
# Description: as §1
# Estrogen ERβ = biological target: T5, Estrogen ERβ (Homo sapiens, UniProt Q92731); test: Receptor binding 226050
# T5 construct: Eurofins (contract assay) 226050
# T5 sequence (Q92731 whole entry): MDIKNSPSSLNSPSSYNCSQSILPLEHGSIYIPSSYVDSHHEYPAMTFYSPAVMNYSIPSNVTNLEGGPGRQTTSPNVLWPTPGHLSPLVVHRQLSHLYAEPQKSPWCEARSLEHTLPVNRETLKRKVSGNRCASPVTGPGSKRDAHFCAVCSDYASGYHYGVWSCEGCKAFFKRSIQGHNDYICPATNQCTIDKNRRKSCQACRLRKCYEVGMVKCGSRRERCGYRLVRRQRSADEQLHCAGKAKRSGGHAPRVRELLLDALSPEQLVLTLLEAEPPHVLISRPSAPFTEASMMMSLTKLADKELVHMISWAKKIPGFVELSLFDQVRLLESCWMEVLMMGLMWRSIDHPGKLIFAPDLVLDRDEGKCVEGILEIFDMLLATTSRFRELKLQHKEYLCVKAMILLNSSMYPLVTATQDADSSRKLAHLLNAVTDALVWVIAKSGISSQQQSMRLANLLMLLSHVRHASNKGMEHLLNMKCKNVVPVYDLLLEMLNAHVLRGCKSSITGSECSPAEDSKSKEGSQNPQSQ
# Description: as §1
# Opiate μ(OP3, MOP) = biological target: T6, Opiate μ(OP3, MOP) (Homo sapiens, UniProt P35372); test: Receptor binding 260410
# T6 construct: Eurofins (contract assay) 260410
# T6 sequence (P35372 whole entry): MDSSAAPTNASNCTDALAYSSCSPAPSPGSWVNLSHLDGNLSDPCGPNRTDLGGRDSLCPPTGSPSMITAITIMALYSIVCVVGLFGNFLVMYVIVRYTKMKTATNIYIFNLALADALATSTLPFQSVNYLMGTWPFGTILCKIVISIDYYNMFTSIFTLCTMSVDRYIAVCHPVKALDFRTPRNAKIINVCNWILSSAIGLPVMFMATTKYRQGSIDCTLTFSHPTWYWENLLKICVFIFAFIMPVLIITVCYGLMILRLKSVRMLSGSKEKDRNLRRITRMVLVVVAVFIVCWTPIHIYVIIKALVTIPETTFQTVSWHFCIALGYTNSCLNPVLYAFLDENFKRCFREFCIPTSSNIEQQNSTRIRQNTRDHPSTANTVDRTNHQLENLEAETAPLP
# Description: as §1
# [1] = tested on: GABAA, Flunitrazepam, Central; test: Receptor binding 226600; set-up: species or system rat; conditions: 10 μM
# Description: as §1
# Dopamine D2s = biological target: T7, Dopamine D2s (Homo sapiens, UniProt P14416); test: Receptor binding 219700
# T7 construct: Eurofins 219700; host or cells: crude membrane preparation
# T7 sequence (P14416 1-414 isoform P14416-2): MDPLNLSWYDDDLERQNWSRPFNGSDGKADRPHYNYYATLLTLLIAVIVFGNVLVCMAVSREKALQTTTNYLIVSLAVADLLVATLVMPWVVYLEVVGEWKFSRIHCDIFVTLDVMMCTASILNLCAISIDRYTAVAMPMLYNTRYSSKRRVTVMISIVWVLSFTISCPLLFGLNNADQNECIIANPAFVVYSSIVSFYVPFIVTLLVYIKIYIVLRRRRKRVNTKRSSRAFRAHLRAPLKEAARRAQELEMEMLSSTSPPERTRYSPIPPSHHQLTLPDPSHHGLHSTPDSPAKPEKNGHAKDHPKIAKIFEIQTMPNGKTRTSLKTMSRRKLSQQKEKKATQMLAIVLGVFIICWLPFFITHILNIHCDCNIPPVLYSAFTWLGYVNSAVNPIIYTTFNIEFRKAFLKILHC
# Description: as §1
# [2] = tested on: Glutamate, NMDA, Phencyclidine; test: Receptor binding 233000; set-up: species or system rat; conditions: 10 μM
# Description: as §1
# Muscarinic M3 = biological target: T8, Muscarinic M3 (Homo sapiens, UniProt P20309); test: Receptor binding 252810
# T8 construct: Eurofins (contract assay) 252810
# T8 sequence (P20309 whole entry): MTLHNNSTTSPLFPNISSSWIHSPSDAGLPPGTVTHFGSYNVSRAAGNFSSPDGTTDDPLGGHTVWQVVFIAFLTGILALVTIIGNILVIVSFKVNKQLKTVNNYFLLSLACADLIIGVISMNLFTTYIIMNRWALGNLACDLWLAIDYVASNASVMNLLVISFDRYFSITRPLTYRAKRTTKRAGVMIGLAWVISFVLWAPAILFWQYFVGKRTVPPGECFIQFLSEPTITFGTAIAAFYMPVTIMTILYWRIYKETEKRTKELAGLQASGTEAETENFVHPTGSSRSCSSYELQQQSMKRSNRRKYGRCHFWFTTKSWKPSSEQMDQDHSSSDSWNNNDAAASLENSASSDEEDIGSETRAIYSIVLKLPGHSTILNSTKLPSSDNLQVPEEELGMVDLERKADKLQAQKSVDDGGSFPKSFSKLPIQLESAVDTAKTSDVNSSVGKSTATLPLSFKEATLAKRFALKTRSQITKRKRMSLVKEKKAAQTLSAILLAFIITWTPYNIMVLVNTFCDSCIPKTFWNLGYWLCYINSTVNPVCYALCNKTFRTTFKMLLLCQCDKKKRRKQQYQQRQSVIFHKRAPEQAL
# Description: as §1
# [3] = biological target: T9, Transporter, Norepinephrine (NET) (Homo sapiens, UniProt P23975); test: Receptor binding 204410
# T9 construct: Eurofins (contract assay) 204410
# Description: as §1
# Phorbol Ester = test: Receptor binding 264500; set-up: species or system mouse; conditions: 10 μM
# Description: as §1
# Sigma σ2 = biological target: T10, Sigma σ2 (Homo sapiens, UniProt Q5BJF2); test: Receptor binding 299007
# T10 construct: Eurofins (contract assay) 299007
# T10 sequence (Q5BJF2 whole entry): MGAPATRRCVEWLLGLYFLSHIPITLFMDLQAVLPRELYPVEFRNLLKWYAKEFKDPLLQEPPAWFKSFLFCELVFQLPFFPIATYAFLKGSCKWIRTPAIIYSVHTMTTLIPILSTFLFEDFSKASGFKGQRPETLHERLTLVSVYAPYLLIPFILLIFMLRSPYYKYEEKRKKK
# Description: as §1
# Dopamine D1 = biological target: T11, Dopamine D1 (Homo sapiens, UniProt P21728); test: Receptor binding 219500
# T11 construct: Eurofins 219500; host or cells: crude membrane preparation
# T11 sequence (P21728 whole entry): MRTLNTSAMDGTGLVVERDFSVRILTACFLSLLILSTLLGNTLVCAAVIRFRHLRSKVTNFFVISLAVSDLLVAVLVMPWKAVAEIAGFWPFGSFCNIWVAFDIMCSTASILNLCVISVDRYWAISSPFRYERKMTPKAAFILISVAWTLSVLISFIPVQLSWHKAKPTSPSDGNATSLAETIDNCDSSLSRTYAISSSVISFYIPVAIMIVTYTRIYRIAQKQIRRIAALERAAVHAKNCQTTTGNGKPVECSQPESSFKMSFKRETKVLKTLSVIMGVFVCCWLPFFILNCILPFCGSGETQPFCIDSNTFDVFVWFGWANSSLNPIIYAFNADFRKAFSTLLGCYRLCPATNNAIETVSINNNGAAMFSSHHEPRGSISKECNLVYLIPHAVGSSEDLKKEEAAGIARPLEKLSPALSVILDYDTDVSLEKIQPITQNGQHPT
# Description: as §1
# STZ diabetic rats = test: Haemodynamics in streptozotocin diabetic rats (echocardiography); format: in vivo, rat; conditions: 20 mg/kg os, after treatment, mean ± SD, n = 12
# Description: Sprague Dawley male rats (150-175 g) were made diabetic by a single injection into the tail vein of a solution of streptozotocin (STZ, 50 mg/kg, Sigma-Aldrich), freshly prepared in 0.1 M sodium citrate buffer, pH 4.5. Control rats received citrate buffer. Fasting glycaemia was measured after 1 week and rats with values >400 mg/dl were considered diabetic.
# Eight-nine weeks after STZ injection, rats were submitted to transthoracic echocardiographic and Doppler evaluation performed under pentobarbital anesthesia. Two-dimensionally guided M-mode recordings were used to obtain short-axis measurements of left ventricular end-diastolic diameter (LVEDD), left ventricular end-systolic diameter (LVESD), posterior (PW) and septal (SW) diastolic wall thickness according to the American Society of Echocardiography guidelines (Lang R M et al. Eur J Echocardiography 2006; 7:79-108). Fractional shortening was calculated as FS=(LVEDD-LVESD)/LVEDD. Relative wall thickness was calculated as PWTd+IVSTd/LVEDD.
# Mitral inflow was measured by pulsed Doppler at the tips of mitral leaflets from an apical 4-chamber view to obtain early and late filling velocities (E, A) and deceleration time of early filling velocity (DT). The deceleration slope was calculated as E/DT ratio. The mitral deceleration index was calculated as DT/E ratio.
# Tissue Doppler Imaging (TDI) was evaluated from the apical 4-chamber view to record septal mitral annular movements, i.e., peak myocardial systolic (s′) and early and late diastolic velocity (e′ and a′).
# Compound CVie 101 was orally administered to STZ injected rats at the dose of 20 mg/kg and echocardiographic parameters were measured after 1 h.
# T1 sequence (P43140 whole entry): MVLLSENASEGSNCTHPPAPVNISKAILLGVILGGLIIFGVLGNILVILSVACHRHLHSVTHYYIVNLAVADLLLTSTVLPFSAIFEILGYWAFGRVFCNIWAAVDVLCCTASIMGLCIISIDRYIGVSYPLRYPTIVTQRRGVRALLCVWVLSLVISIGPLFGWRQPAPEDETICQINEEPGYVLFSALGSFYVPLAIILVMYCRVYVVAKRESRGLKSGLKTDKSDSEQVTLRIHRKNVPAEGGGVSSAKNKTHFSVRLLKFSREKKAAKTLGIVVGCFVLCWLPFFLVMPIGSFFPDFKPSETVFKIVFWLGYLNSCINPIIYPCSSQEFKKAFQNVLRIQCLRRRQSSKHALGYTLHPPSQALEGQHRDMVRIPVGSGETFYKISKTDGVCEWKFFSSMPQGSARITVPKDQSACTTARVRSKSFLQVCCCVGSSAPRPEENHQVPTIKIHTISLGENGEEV
structure (smiles),measurement,setting,value
"C[C@]12CC[C@H](O)C[C@H]1CCC1C2CC[C@]2(C)[C@@H](c3c[nH]cn3)CC[C@]12O (stereo partly drawn) [CVie 101, 3β-hydroxy-5β-10β-methyl-13β-methyl-14β-hydroxy-17β-(imidazol-4-yl)androstane]",inhibition at 10 µM,Adrenergic α1A,1%
same,inhibition at 10 µM,Monoamine Oxidase MAO-B,4%
same,inhibition at 10 µM,Angiotensin AT1,12%
same,inhibition at 10 µM,Estrogen ERα,14%
same,inhibition at 10 µM,Estrogen ERβ,17%
same,inhibition at 10 µM,"Opiate μ(OP3, MOP)",19%
same,% inhib,[1],6%
same,inhibition at 10 µM,Dopamine D2s,4%
same,% inhib,[2],7%
same,inhibition at 10 µM,Muscarinic M3,15%
same,inhibition at 10 µM,[3],2%
same,% inhib,Phorbol Ester,−4%
same,inhibition at 10 µM,Sigma σ2,30%
same,inhibition at 10 µM,Dopamine D1,-5%
same,A (late filling velocity of mitral inflow),STZ diabetic rats,0.76 ± 0.17 m/s
same,A′ (TDI late relaxation velocity),STZ diabetic rats,28.7 ± 6.6 cm/s
same,CO (cardiac output),STZ diabetic rats,219.0 ± 76.7 mL/min
same,DT (deceleration time of E wave),STZ diabetic rats,47.7 ± 4.8 ms
same,DT/E (mitral deceleration index),STZ diabetic rats,51.0 ± 10.2 ms·s/m
same,E (early filling velocity of mitral inflow),STZ diabetic rats,0.96 ± 0.14 m/s
same,E/A (index of LV function),STZ diabetic rats,1.29 ± 0.22
same,E/DT (deceleration slope),STZ diabetic rats,20.3 ± 4.1 m/s2
same,E/e′ (index of LV filling pressure),STZ diabetic rats,38.0 ± 4.9
same,E′ (TDI early relaxation velocity),STZ diabetic rats,25.2 ± 1.9 cm/s
same,FS (fractional shortening),STZ diabetic rats,45.1 ± 3.4 %
same,HR (heart rate),STZ diabetic rats,262 ± 48.1 beat/min
same,SV (stroke volume),STZ diabetic rats,0.82 ± 0.21 ml/beat
same,S′ (TDI contraction velocity),STZ diabetic rats,23.8 ± 3.6 cm/s
